Data: US11845742B2, “Therapeutic compounds and methods to treat infection” (priority 2017, dated 2023)
Values after ≈ are worked out from the molar mass of the structure shown.

How the values were obtained:
MreB = details: P. aeruginosa; background statement; cited from earlier work
[1] = molecular target: T1, MexAB-OprM efflux transporter (Pseudomonas aeruginosa, UniProt P52002); details: wild-type P. aeruginosa, background statement; cited from earlier work
T1 construct: MexAB-OprM efflux transporter present in wild-type P. aeruginosa; endogenous in cells; host or cells: wild-type P. aeruginosa

P. Aeruginosa PAO1 [2] = assay: MIC assay in the presence of a bacterial efflux pump inhibitor (EPI), P. aeruginosa PAO1; format: cell-based, Pseudomonas aeruginosa; details: in the presence of 12.5 μg/ml of N-(((2S,4R)-4-(aminomethyl)pyrrolidin-2-yl)methyl)-6-(4-fluorophenyl)-1H-indole-2-carboxamide
Protocol: The ability of a compound to produce an antibiotic effect can be determined using a method as described in Example 11. Data for representative compounds used in combination with the bacterial efflux pump inhibitor (EPI) N-(((2S,4R)-4-(aminomethyl)pyrrolidin-2-yl)methyl)-6-(4-fluorophenyl)-1H-indole-2-carboxamide is shown in Table 1.
(§1) MIC assays were conducted in accordance with Clinical and Laboratory Standards Institute (CLSI) guidelines for broth microdilution.
The EPI assay for the purposes of these studies represents a MIC assay in which the MIC of the antibiotic against the bacteria is tested in the presence of an experimental efflux pump inhibitor (EPI). The highest concentration of the EPI present in the assay typically is ½ of the intrinsic MIC of the compound. […] Using serial dilutions of the EPI, its enhancement of antibiotic activity was then evaluated. The relative EPI activity was decided by comparing the MIC of the antibiotic in the presence of the EPI compound with the intrinsic MIC of the antibiotic alone. For comparative purposes, we generally used EPIs at concentration of 12.5 and 6.25 μg/ml against varying concentration of our test antibiotic.

P. Aeruginosa PAO1 [3] = assay: Intrinsic MIC assay (broth microdilution), P. aeruginosa PAO1; format: cell-based, Pseudomonas aeruginosa; details: Pseudomonas aeruginosa, 18 h; P. Aeruginosa PAO1, without EPI; read-out: Intrinsic MIC
Protocol: as §1
(§2) The intrinsic MIC of the experimental EPIs was tested with the method described. The 2-fold serial dilution begins with 100 μg/mL of tested compound in the first column of the 96-well plates. The following Gram-negative bacterial strains were included in these assays: • Escherichia coli ATCC 25922 • Klebsiella pneumoniae ATCC 13883 and ATCC 10031 • Pseudomonas aeruginosa ATCC 27853. • Pseudomonas aeruginosa PAO1 • Acinetobacter baumannii ATCC 19606

K. pneumoniae ATCC 10031 = assay: Intrinsic MIC assay (broth microdilution), K. pneumoniae; format: cell-based, Klebsiella pneumoniae; details: Klebsiella pneumoniae, ATCC10031; K. pneumoniae ATCC 10031; read-out: Intrinsic MIC
Protocol: as §1, §2

A. baumannii ATCC 19606 = assay: Intrinsic MIC assay (broth microdilution), A. baumannii; format: cell-based, Acinetobacter baumannii; details: Acinetobacter baumannii, ATCC19606; A. baumannii ATCC 19606; read-out: Intrinsic MIC
Protocol: as §1, §2

E. coli ATCC 25922 = assay: Intrinsic MIC assay (broth microdilution), E. coli; format: cell-based, Escherichia coli; details: Escherichia coli, ATCC25922; E. coli ATCC 25922; read-out: Intrinsic MIC
Protocol: as §1, §2

T1 sequence (P52477 24-383): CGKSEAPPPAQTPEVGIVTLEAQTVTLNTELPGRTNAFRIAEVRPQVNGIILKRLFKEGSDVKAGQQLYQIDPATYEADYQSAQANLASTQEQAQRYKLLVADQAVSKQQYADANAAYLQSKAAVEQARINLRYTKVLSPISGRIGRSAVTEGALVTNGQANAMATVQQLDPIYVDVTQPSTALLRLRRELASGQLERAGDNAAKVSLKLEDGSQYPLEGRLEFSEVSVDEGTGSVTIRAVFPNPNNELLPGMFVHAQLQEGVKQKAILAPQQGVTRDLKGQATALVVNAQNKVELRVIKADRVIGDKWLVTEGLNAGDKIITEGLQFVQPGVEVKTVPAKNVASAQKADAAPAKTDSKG
T1 sequence (P52002 whole entry): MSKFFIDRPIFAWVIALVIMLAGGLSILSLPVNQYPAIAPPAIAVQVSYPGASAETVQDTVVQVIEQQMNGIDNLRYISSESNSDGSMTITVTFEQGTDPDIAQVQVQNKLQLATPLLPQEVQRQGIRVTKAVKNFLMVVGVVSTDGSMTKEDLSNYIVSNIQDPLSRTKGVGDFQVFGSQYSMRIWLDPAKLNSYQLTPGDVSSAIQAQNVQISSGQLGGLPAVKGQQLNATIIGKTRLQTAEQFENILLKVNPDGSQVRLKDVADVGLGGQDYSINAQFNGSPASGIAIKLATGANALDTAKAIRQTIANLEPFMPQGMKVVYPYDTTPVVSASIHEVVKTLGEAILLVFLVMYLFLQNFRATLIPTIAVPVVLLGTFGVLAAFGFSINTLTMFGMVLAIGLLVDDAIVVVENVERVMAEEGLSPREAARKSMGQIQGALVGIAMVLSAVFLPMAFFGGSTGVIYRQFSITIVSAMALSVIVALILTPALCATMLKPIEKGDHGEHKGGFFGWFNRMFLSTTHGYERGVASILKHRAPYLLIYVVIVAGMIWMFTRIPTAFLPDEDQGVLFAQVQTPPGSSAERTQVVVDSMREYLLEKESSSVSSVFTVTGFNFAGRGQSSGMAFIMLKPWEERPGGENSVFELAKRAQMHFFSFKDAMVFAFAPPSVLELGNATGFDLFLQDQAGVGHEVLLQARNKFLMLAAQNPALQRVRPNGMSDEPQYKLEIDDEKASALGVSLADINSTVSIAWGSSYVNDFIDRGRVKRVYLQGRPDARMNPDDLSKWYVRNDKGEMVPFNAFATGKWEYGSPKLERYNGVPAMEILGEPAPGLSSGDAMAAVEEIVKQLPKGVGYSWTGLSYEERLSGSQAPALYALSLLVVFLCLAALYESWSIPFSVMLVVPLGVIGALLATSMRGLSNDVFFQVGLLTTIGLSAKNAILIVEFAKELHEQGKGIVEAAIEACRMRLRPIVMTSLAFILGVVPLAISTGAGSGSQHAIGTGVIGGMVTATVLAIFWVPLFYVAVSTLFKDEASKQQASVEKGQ
T1 sequence (Q51487 18-485, further chain): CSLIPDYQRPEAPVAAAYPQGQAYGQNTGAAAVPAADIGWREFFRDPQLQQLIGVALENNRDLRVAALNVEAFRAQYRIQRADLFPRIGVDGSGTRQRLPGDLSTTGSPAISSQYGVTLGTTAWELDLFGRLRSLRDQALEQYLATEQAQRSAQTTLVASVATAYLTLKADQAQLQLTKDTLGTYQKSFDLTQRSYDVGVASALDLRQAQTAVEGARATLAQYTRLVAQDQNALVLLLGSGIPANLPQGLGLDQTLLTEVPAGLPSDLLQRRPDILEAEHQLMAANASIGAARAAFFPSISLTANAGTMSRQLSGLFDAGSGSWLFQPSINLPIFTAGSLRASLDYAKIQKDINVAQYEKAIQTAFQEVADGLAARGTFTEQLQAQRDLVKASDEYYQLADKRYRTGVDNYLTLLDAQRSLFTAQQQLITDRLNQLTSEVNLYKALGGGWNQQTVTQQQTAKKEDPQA

SMILES	MIC in the Presence of EPI* (P. Aeruginosa PAO1 [2])	MIC (P. Aeruginosa PAO1 [3])	MIC (K. pneumoniae ATCC 10031)	MIC (A. baumannii ATCC 19606)	MIC (E. coli ATCC 25922)	MreB inhibition (MreB)	Efflux transporter substrate [1]
NC1CCCc2c1[nH]c1ccc(Br)cc21 (centres unmarked) [CBR-4830]	–	–	–	–	–	effective MreB inhibitor	substrate for the MexAB-OprM efflux transporter
CC(NCCCNC(=O)C1CCCCC1)c1cc2cc(Br)ccc2[nH]1 (centres unmarked) [Example 31, N-(3-((1-(5-Bromo-1H-indol-2-yl)ethyl)amino)propyl)cyclohexanecarboxamide]	128 µg/mL	> 256 µg/mL	16 µg/mL (≈ 39.4 µM)	64 µg/mL (≈ 157 µM)	64 µg/mL (≈ 157 µM)	–	–
CCCCNC(C)c1cc2cc(Br)ccc2[nH]1 (centres unmarked) [Example 32, N-(1-(5-Bromo-1H-indol-2-yl)ethyl)butan-1-amine]	64 µg/mL	> 256 µg/mL	16 µg/mL (≈ 54.2 µM)	64 µg/mL (≈ 217 µM)	32 µg/mL (≈ 108 µM)	–	–
CC(NCCc1ccccc1)c1cc2cc(Br)ccc2[nH]1 (centres unmarked) [Example 33, 1-(5-Bromo-1H-indol-2-yl)-N-phenethylethan-1-amine]	32 µg/mL	> 256 µg/mL	4 µg/mL (≈ 11.7 µM)	32 µg/mL (≈ 93.2 µM)	16 µg/mL (≈ 46.6 µM)	–	–
CC(NCC1CC1)c1cc2cc(Br)ccc2[nH]1 (centres unmarked) [Example 35, 1-(5-Bromo-1H-indol-2-yl)-N-(cyclopropylmethyl)ethan-1-amine]	256 µg/mL	> 256 µg/mL	64 µg/mL (≈ 218 µM)	128 µg/mL (≈ 437 µM)	128 µg/mL (≈ 437 µM)	–	–
NC(CCc1ccccc1)c1cc2cc(Br)ccc2[nH]1 (centres unmarked) [Example 36, 1-(5-Bromo-1H-indol-2-yl)-3-phenylpropan-1-amine]	32 µg/mL	> 256 µg/mL	8 µg/mL (≈ 24.3 µM)	32 µg/mL (≈ 97.2 µM)	16 µg/mL (≈ 48.6 µM)	–	–
CCNCCNC(C)c1cc2cc(Br)ccc2[nH]1 (centres unmarked) [Example 39, N^1-(1-(5-Bromo-1H-indol-2-yl)ethyl)-N^2-ethylethane-1,2-diaminehydrochloricacid]	> 256 µg/mL	> 256 µg/mL	128 µg/mL (≈ 413 µM)	256 µg/mL (≈ 825 µM)	256 µg/mL (≈ 825 µM)	–	–

Continued, in another order:

MIC in the Presence of EPI* (P. Aeruginosa PAO1 [2])	MIC (P. Aeruginosa PAO1 [3])	MIC (K. pneumoniae ATCC 10031)	MIC (A. baumannii ATCC 19606)	MIC (E. coli ATCC 25922)	SMILES	MreB inhibition (MreB)	Efflux transporter substrate [1]
16 µg/mL	> 256 µg/mL	1 µg/mL (≈ 2.1 µM)	16 µg/mL (≈ 33.7 µM)	8 µg/mL (≈ 16.8 µM)	CC(NCCCNC(=O)c1cc(Cl)c(Cl)s1)c1cc2cc(Br)ccc2[nH]1 (centres unmarked) [Example 25, N-(3-((1-(5-Bromo-1H-indol-2-yl)ethyl)amino)propyl)-4,5-dichlorothiophene-2-carboxamide]	–	–
16 µg/mL	> 256 µg/mL	16 µg/mL (≈ 37.7 µM)	128 µg/mL (≈ 301 µM)	64 µg/mL (≈ 151 µM)	CC(NCCCNC(=O)c1ccc(Cl)o1)c1cc2cc(Br)ccc2[nH]1 (centres unmarked) [Example 26, N-(3-((1-(5-Bromo-1H-indol-2-yl)ethyl)amino)propyl)-5-chlorofuran-2-carboxamide]	–	–
32 µg/mL	> 256 µg/mL	4 µg/mL (≈ 8.52 µM)	64 µg/mL (≈ 136 µM)	32 µg/mL (≈ 68.2 µM)	CC(NCCCNC(=O)c1ccc(Cl)c(Cl)c1)c1cc2cc(Br)ccc2[nH]1 (centres unmarked) [Example 30, N-(3-((1-(5-Bromo-1H-indol-2-yl)ethyl)amino)propyl)-3,4-dichlorobenzamide]	–	–
32 µg/mL	> 256 µg/mL	4 µg/mL (≈ 8.79 µM)	64 µg/mL (≈ 141 µM)	32 µg/mL (≈ 70.3 µM)	CC(NCCNC(=O)c1ccc(Cl)c(Cl)c1)c1cc2cc(Br)ccc2[nH]1 (centres unmarked) [Example 34, N-(2-((1-(5-Bromo-1H-indol-2-yl)ethyl)amino)ethyl)-3,4-dichlorobenzamide]	–	–
16 µg/mL	> 256 µg/mL	4 µg/mL (≈ 8.52 µM)	32 µg/mL (≈ 68.2 µM)	16 µg/mL (≈ 34.1 µM)	CC(NCCCC(=O)Nc1ccc(Cl)c(Cl)c1)c1cc2cc(Br)ccc2[nH]1 (centres unmarked) [Example 37, 4-((1-(5-Bromo-1H-indol-2-yl)ethyl)amino)-N-(3,4-dichlorophenyl)butanamide]	–	–
16 µg/mL	> 256 µg/mL	4 µg/mL (≈ 8.77 µM)	64 µg/mL (≈ 140 µM)	16 µg/mL (≈ 35.1 µM)	CC(NCCCCOc1ccc(Cl)c(Cl)c1)c1cc2cc(Br)ccc2[nH]1 (centres unmarked) [Example 38, N-(1-(5-Bromo-1H-indol-2-yl)ethyl)-4-(3,4-dichlorophenoxy)butan-1-amine]	–	–
